# Assay results published in US7608627B2, “6-azaindole compound” (Takeda Pharmaceutical Company Limited, priority 2005, dated 2009).
# Where a name gives a salt, the structure may show the parent alone.
row,Structure (SMILES),melting point
1,CNCc1cc2ccnc(Cl)c2[nH]1.Cl,264 to 266 °C (dec.)
2,Cl.Clc1nccc2cc(CNCc3ccccc3)[nH]c12,201 to 204 °C
3,Cl.c1ccc(CON=C(c2ccccc2)c2cc3ccncc3[nH]2)cc1,153 to 155 °C
4,Cl.Clc1nccc2cc(CNC3CCCC3)[nH]c12,241 to 244 °C
5,Cl.Clc1nccc2cc(CNCc3ccco3)[nH]c12,98 to 101 °C
6,Cl.Clc1nccc2cc(CNCCN3CCOCC3)[nH]c12,146 to 150 °C
7,Cl.Clc1nccc2cc(CNCc3ccccn3)[nH]c12,176 to 179 °C
8,CN1CCN(C(=O)c2cc3ccnc(Cl)c3[nH]2)CC1,230 to 232 °C
9,Cl.Clc1nccc2cc(CNC3CCN(Cc4ccccc4)CC3)[nH]c12,295 to 310 °C (dec.)
10,Cl.Clc1nccc2cc(CN3CCCCC3)[nH]c12,240 to 244 °C
11,Cl.NCCCO/N=C(\c1ccccc1)c1cc2ccncc2[nH]1,168 to 174 °C (dec.)
12,CCNCc1cc2ccnc(Cl)c2[nH]1.Cl,242 to 245 °C (dec.)
13,N=C(N)NN=C(c1ccccc1)c1cc2ccncc2[nH]1 (as salt: hydrochloride),306 to 310 °C
14,N=C(N)N/N=C(\c1ccccc1)c1cc2cc(Cl)ncc2[nH]1 (as salt: hydrochloride),274 to 278 °C
15,NCc1cc2ccncc2[nH]1 (as salt: hydrochloride),302 to 303 °C
16,CC(C)/C(=N\NC(=N)N)c1cc2ccncc2[nH]1 (as salt: hydrochloride),242 to 245 °C
17,CC(C)C/C(=N\NC(=N)N)c1cc2ccncc2[nH]1 (as salt: hydrochloride),232 to 236 °C
18,"Clc1nccc2cc(C(NCc3ccccc3)c3ccccc3)[nH]c12 (stereo not drawn) (as salt: hydrochloride) [Example 34, N-Benzyl-N-[(7-chloro-1H-pyrrolo[2,3-c]pyridin-2-yl)(phenyl)methyl]amine dihydrochloride]",170 to 185 °C (dec.)
19,"NC(c1ccccc1)c1cc2ccncc2[nH]1 (stereo not drawn) (as salt: hydrochloride) [Example 40, 1-Phenyl-1-(1H-pyrrolo[2,3-c]pyridin-2-yl)methylamine dihydrochloride]",240 to 250 °C
20,"C/C(=N\NC(=N)N)c1cc2ccncc2[nH]1 (as salt: hydrochloride) [Example 71, [[1-(1H-Pyrrolo[2,3-c]pyridin-2-yl)ethylidene]amino]guanidine dihydrochloride]",314 to 318 °C (dec.)
21,"CC(N)c1cc2ccncc2[nH]1 (stereo not drawn) (as salt: hydrochloride) [Example 75, 1-(1H-Pyrrolo[2,3-c]pyridin-2-yl)ethylamine dihydrochloride]",289 to 292 °C
22,"NCCON=C(c1ccc(Cl)c(Cl)c1)c1cc2ccncc2[nH]1 (as salt: trifluoroacetate) [Example 134, (3,4-Dichlorophenyl)(1H-pyrrolo[2,3-c]pyridin-2-yl)methanone O-(2-aminoethyl)oxime bis(hydrogen trifluoroacetate)]",64 to 68 °C
23,"Cl.Cl.c1ccc(C(=NOC2CCCNC2)c2cc3ccncc3[nH]2)cc1 (single isomer, unassigned)",240 to 245 °C (dec.)
24,"c1ccc(C(=NOC2CCNCC2)c2cc3ccncc3[nH]2)cc1 (single isomer, unassigned) (as salt: hydrochloride)",240 to 245 °C (dec.)
25,"c1ccc(C(=NOC2CCCNC2)c2cc3ccncc3[nH]2)cc1 (single isomer, unassigned) (as salt: hydrochloride)",240 to 245 °C (dec.)
26,"COc1ccc(/C(=N/OCCN)c2cc3ccncc3[nH]2)cc1 (single isomer, unassigned) (as salt: hydrochloride) [Example 124, (4-Methoxyphenyl)(1H-pyrrolo[2,3-c]pyridin-2-yl)methanone O-(2-aminoethyl)oxime dihydrochloride]",178 to 184 °C
27,"Cc1ccc(/C(=N/OCCN)c2cc3ccncc3[nH]2)cc1 (single isomer, unassigned) (as salt: trifluoroacetate) [Example 119, (4-Methylphenyl)(1H-pyrrolo[2,3-c]pyridin-2-yl)methanone O-(2-aminoethyl)oxime bis(hydrogen trifluoroacetate)]",190 to 194 °C

row,Structure (SMILES),melting point
1,"NCCO/N=C(/c1ccc(Cl)cc1)c1cc2ccncc2[nH]1 (single isomer, unassigned) (as salt: trifluoroacetate) [Example 126, (4-Chlorophenyl)(1H-pyrrolo[2,3-c]pyridin-2-yl)methanone O-(2-aminoethyl)oxime bis(hydrogen trifluoroacetate)]",146 to 150 °C
2,"CC(C)(C)OC(=O)NCCO/N=C(\c1ccc(Cl)cc1)c1cc2ccncc2[nH]1 (single isomer, unassigned) [Example 116, tert-Butyl 2-[[[(4-chlorophenyl)(1H-pyrrolo[2,3-c]pyridin-2-yl)methylene]amino]oxy]ethylcarbamate]",166 to 169 °C
3,"OCc1cc2ccnc(Cl)c2[nH]1 [Example 1, (7-Chloro-1H-pyrrolo[2,3-c]pyridin-2-yl)methanol]",185 to 187 °C
4,"O=C(NCc1ccccc1)c1cc2ccnc(Cl)c2[nH]1 [Example 2, N-Benzyl-7-chloro-1H-pyrrolo[2,3-c]pyridine-2-carboxamide]",217 to 220 °C
5,"O=C(c1cc2ccnc(Cl)c2[nH]1)N1CCOCC1 [Example 3, 7-Chloro-2-(4-morpholinylcarbonyl)-1H-pyrrolo[2,3-c]pyridine]",170 to 171 °C
6,"O=C(NCc1ccccn1)c1cc2ccnc(Cl)c2[nH]1 [Example 4, 7-Chloro-N-(2-pyridinylmethyl)-1H-pyrrolo[2,3-c]pyridine-2-carboxamide]",177 to 183 °C
7,"O=C(NCc1cccnc1)c1cc2ccnc(Cl)c2[nH]1 [Example 5, 7-Chloro-N-(3-pyridinylmethyl)-1H-pyrrolo[2,3-c]pyridine-2-carboxamide]",189 to 191 °C
8,"O=C(NCc1ccncc1)c1cc2ccnc(Cl)c2[nH]1 [Example 6, 7-Chloro-N-(4-pyridinylmethyl)-1H-pyrrolo[2,3-c]pyridine-2-carboxamide]",> 340 °C
9,"O=C(NCc1ccco1)c1cc2ccnc(Cl)c2[nH]1 [Example 7, 7-Chloro-N-(2-furylmethyl)-1H-pyrrolo[2,3-c]pyridine-2-carboxamide]",205 to 209 °C
10,"O=C(NCc1cccs1)c1cc2ccnc(Cl)c2[nH]1 [Example 8, 7-Chloro-N-(2-thienylmethyl)-1H-pyrrolo[2,3-c]pyridine-2-carboxamide]",179 to 181 °C
11,"CC(=O)N1CCN(C(=O)c2cc3ccnc(Cl)c3[nH]2)CC1 [Example 12, 2-[(4-Acetyl-1-piperazinyl)carbonyl]-7-chloro-1H-pyrrolo[2,3-c]pyridine]",179 to 184 °C
12,"O=C(c1cc2ccnc(Cl)c2[nH]1)N1CCCC1 [Example 13, 7-Chloro-2-(1-pyrrolidinylcarbonyl)-1H-pyrrolo[2,3-c]pyridine]",152 to 154 °C
13,"O=C(c1cc2ccnc(Cl)c2[nH]1)N1CCSCC1 [Example 14, 7-Chloro-2-(4-thiomorpholinylcarbonyl)-1H-pyrrolo[2,3-c]pyridine]",62 to 72 °C
14,"O=C(Nc1ccccn1)c1cc2ccnc(Cl)c2[nH]1 [Example 20, 7-Chloro-N-(2-pyridinyl)-1H-pyrrolo[2,3-c]pyridine-2-carboxamide]",94 to 102 °C
15,"O=C(Nc1cccnc1)c1cc2ccnc(Cl)c2[nH]1 [Example 21, 7-Chloro-N-(3-pyridinyl)-1H-pyrrolo[2,3-c]pyridine-2-carboxamide]",> 320 °C
16,"O=C(Nc1ccncc1)c1cc2ccnc(Cl)c2[nH]1 [Example 22, 7-Chloro-N-(4-pyridinyl)-1H-pyrrolo[2,3-c]pyridine-2-carboxamide]",> 320 °C
17,"O=C(NCc1ccccn1)c1cc2ccncc2[nH]1 [Example 27, N-(2-Pyridinylmethyl)-1H-pyrrolo[2,3-c]pyridine-2-carboxamide]",230 to 236 °C
18,"O=C(c1ccccc1)c1cc2ccnc(Cl)c2[nH]1 [Example 29, (7-Chloro-1H-pyrrolo[2,3-c]pyridin-2-yl)(phenyl)methanone]",152 to 153 °C
19,"O=C(Nc1cccnc1)c1cc2ccncc2[nH]1 [Example 30, N-(3-Pyridinyl)-1H-pyrrolo[2,3-c]pyridine-2-carboxamide]",270 to 290 °C
20,"O=C(c1ccsc1)c1cc2ccncc2[nH]1 [Example 32, (1H-Pyrrolo[2,3-c]pyridin-2-yl)(thien-3-yl)methanone]",178 to 181 °C (dec.)
21,"O=C(c1cc2ccncc2[nH]1)N1CCCC1 [Example 33, 2-(1-Pyrrolidinylcarbonyl)-1H-pyrrolo[2,3-c]pyridine]",260 to 275 °C (dec.)
22,"O=C(c1ccccc1)c1cc2ccncc2[nH]1 [Example 35, Phenyl(1H-pyrrolo[2,3-c]pyridin-2-yl)methanone]",245 to 247 °C
23,"O=C(NCc1cccnc1)c1cc2ccnc(N(Cc3ccccc3)Cc3ccccc3)c2[nH]1 [Example 37, 7-(Dibenzylamino)-N-(3-pyridinylmethyl)-1H-pyrrolo[2,3-c]pyridine-2-carboxamide]",105 to 108 °C
24,"O=C(NCc1cccs1)c1cc2ccnc(N(Cc3ccccc3)Cc3ccccc3)c2[nH]1 [Example 38, 7-(Dibenzylamino)-N-(2-thienylmethyl)-1H-pyrrolo[2,3-c]pyridine-2-carboxamide]",152 to 154 °C
25,"O/N=C(\c1ccccc1)c1cc2ccncc2[nH]1 [Example 39, Phenyl(1H-pyrrolo[2,3-c]pyridin-2-yl)methanone oxime]",132 to 142 °C
26,"O=C(NCc1ccncc1)c1cc2ccnc(N(Cc3ccccc3)Cc3ccccc3)c2[nH]1 [Example 41, 7-(Dibenzylamino)-N-(4-pyridinylmethyl)-1H-pyrrolo[2,3-c]pyridine-2-carboxamide]",119 to 120 °C
27,"O=C(NCc1ccncc1)c1cc2ccnc(NCc3ccccc3)c2[nH]1 [Example 42, 7-(Benzylamino)-N-(4-pyridinylmethyl)-1H-pyrrolo[2,3-c]pyridine-2-carboxamide]",199 to 200 °C
